Measured values reported in patent US20250059205A1, “Heterocyclic Compounds and Methods of Use” (AMGEN INC., priority 2021, published 2025).

Experiments:
[1] = molecular target: GDP-bound KRAS protein (aa 1-169), containing both G12D and C118A amino acid substitutions (Homo sapiens, UniProt P01116, C118A/G12D); assay: KRAS G12D Coupled Nucleotide Exchange Assay; type: biochemical; conditions: 2 h compound pre-incubation
Description: Following compound pre-incubation, purified SOS protein (aa 564-1049) and GTP (Roche 10106399001) were added to the assay wells and incubated for an additional 30 min. […] The assay plates were then read on a PerkinElmer EnVision Multilabel Reader, using AlphaScreen® technology, and data were analyzed using a 4-parameter logistic model to calculate IC50 values.

[2] = molecular target: His-tagged KRAS G12D protein (Homo sapiens, UniProt P01116, G12D); assay: KRAS G12D TR-FRET Assay; type: binding
[3] = test system: Phosphorylation of ERK1/2 in A-427 cells; assay: Phospho-ERK1/2 MSD Assay (A-427 cells); type: cell-based; conditions: Homo sapiens, A-427, 2 h, 2 h treatment, read-out: p-ERK (A427 cells) IC50
Summary of the method: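 ERK1/2 phosphorylation measured by Meso Scale whole-cell lysate assay after A-427 cells were exposed to a titration of compound for 2 h at 37 °C.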

[4] = test system: Phosphorylation of ERK1/2 in AsPC-1 cells; assay: Phospho-ERK1/2 MSD Assay (AsPC-1 cells); type: cell-based; conditions: Homo sapiens, ASPC1, 2 h, 2 hours treatment, read-out: p-ERK (AsPC-1 cells) IC50
Summary of the method: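 Read-out: MSD electrochemiluminescent detection of phosphorylated ERK1/2 in whole-cell lysates, fitted to a 4-parameter logistic curve for IC50. Prior to lysis, AsPC-1 cells (25,000 per well) received a 2 h compound dose-response at 37 °C.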

His-tagged KRAS G12D protein, sequence (P01116 1-188 isoform P01116-2 G12D): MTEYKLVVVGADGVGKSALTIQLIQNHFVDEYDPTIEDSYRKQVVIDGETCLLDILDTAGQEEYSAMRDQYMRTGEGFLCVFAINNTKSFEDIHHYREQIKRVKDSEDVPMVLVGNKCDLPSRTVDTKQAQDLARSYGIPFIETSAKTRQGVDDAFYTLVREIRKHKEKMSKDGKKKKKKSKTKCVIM
GDP-bound KRAS protein (aa 1-169), containing both G12D and C118A amino acid substitutions, sequence (P01116 1-169 isoform P01116-2 G12D/C118A): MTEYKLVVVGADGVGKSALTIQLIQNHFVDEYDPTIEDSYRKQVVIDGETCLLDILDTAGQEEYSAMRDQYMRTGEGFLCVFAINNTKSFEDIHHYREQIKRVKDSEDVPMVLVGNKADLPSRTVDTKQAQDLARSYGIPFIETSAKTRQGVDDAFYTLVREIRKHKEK

Row | SMILES | Avg 2 h Coupled Exchange IC50 [1] | IC50 [2] | IC50 [3] | IC50 [4]
1 | CCc1c(F)ccc2cc(O)cc(-c3c(Cl)cc4c(N5C[C@H]6CC[C@@H](C5)N6)nc(OC[C@@]56CCCN5C[C@H](F)C6)nc4c3F)c12 [Example 134, 4-(4-((1R,5S)-3,8-diazabicyclo[3.2.1]octan-3-yl)-6-chloro-8-fluoro-2-(((2R,7aS)-2-fluorotetrahydro-1H-pyrrolizin-7a(5H)-yl)methoxy)quinazolin-7-yl)-5-ethyl-6-fluoronaphthalen-2-ol] | 7 nM | 4 nM | 57 nM | 74 nM
2 | Nc1ccc(C2CC2)c(-c2c(F)cc3c(N4C[C@H]5CC[C@@H](C4)N5)nc(OC[C@@]45CCCN4C[C@H](F)C5)nc3c2F)c1 [Example 114, 3-(4-((1R,5S)-3,8-diazabicyclo[3.2.1]octan-3-yl)-6,8-difluoro-2-(((2R,7aS)-2-fluorotetrahydro-1H-pyrrolizin-7a(5H)-yl)methoxy)quinazolin-7-yl)-4-cyclopropylaniline] | 4 nM | 16 nM | 985 nM | 1420 nM
3 | Cc1cc2[nH]ncc2c(-c2c(F)cc3c(N4C[C@H]5CC[C@@H](C4)N5)nc(OC[C@@]45CCCN4C[C@H](F)C5)nc3c2F)c1Cl [Example 75, 4-((1R,5S)-3,8-diazabicyclo[3.2. 1]octan-3-yl)-7-(5-chloro-6-methyl-1H-indazol-4-yl)-6,8-difluoro-2-(((2R,7aS)-2-fluorotetrahydro-1H-pyrrolizin-7a(5H)-yl)methoxy) quinazoline] | 3 nM | 5 nM | 139 nM | 297 nM
4 | CCc1c(F)ccc2cc(O)cc(-c3c(N)cc4c(N5C[C@H]6CC[C@@H](C5)N6)nc(OC[C@@]56CCCN5C[C@H](F)C6)nc4c3F)c12 [Example 202, 4-(6-Amino-4-((1R,5S)-3,8-diazabicyclo[3.2.1]octan-3-yl)-8-fluoro-2-(((2R,7aS)-2-fluorotetrahydro-1H-pyrrolizin-7a(5H)-yl)methoxy)quinazolin-7-yl)-5-ethyl-6-fluoronaphthalen-2-ol] | 4 nM | 4 nM | 9 nM | 175 nM
5 | Oc1cc(-c2cc3nc(OC[C@@]45CCCN4C[C@H](F)C5)nc(N4C[C@H]5CC[C@@H](C4)N5)c3cc2F)c2ccccc2c1 [Example 42, 4-(4-((1R,5S)-3,8-diazabicyclo[3.2. 1]octan-3-yl)-6-fluoro-2-(((2R,7aS)-2-fluorotetrahydro-1H-pyrrolizin-7a(5H)-yl)methoxy)quinazolin-7-yl)naphthalen-2-ol] | 3 nM | 3 nM | 77 nM | 223 nM
6 | CCc1cccc2cccc(-c3c(Cl)cc4c(N5C[C@H]6CC[C@@H](C5)N6)nc(OC[C@@]56CCCN5C[C@H](F)C6)nc4c3F)c12 [Example 71, 4-((1R,5S)-3,8-diazabicyclo[3.2. 1]octan-3-yl)-6-chloro-7-(8-ethylnaphthalen-1-yl)-8-fluoro-2-(((2R,7aS)-2-fluorotetrahydro-1H-pyrrolizin-7a(5H)-yl)methoxy) quinazoline] | 50 nM | 38 nM | 4790 nM | 3360 nM
7 | Oc1cc(-c2ccc3c(N4C[C@H]5CC[C@@H](C4)N5)nc(OC[C@@]45CCCN4C[C@H](F)C5)nc3c2F)c2c(F)c(F)ccc2c1 [Example 142, 4-(4-((1R,5S)-3,8-diazabicyclo[3.2.1]octan-3-yl)-8-fluoro-2-(((2R,7aS)-2-fluorotetrahydro-1H-pyrrolizin-7a(5H)-yl)methoxy)quinazolin-7-yl)-5,6-difluoronaphthalen-2-ol] | 2 nM | 2 nM | 6 nM | 19 nM
8 | Fc1c(-c2c(C(F)(F)F)ccc3[nH]ncc23)ccc2c(N3C[C@H]4CC[C@@H](C3)N4)nc(OC[C@@]34CCCN3C[C@H](F)C4)nc12 [Example 194, 4-((1R,5S)-3,8-diazabicyclo[3.2.1]octan-3-yl)-8-fluoro-2-(((2R,7aS)-2-fluorotetrahydro-1H-pyrrolizin-7a(5H)-yl)methoxy)-7-(5-(trifluoromethyl)-1H-indazol-4-yl)quinazoline] | 10 nM | 14 nM | 843 nM | 815 nM
9 | Oc1cc(-c2c(F)cc3c(N4C[C@H]5CC[C@@H](C4)N5)nc(OC[C@@]45CCCN4C[C@H](F)C5)nc3c2F)c2c(F)cccc2c1 [Example 159, 4-(4-((1R,5S)-3,8-diazabicyclo[3.2.1]octan-3-yl)-6,8-difluoro-2-(((2R,7aS)-2-fluorotetrahydro-1H-pyrrolizin-7a(5H)-yl)methoxy)quinazolin-7-yl)-5-fluoronaphthalen-2-ol] | 5 nM | 3 nM | 13 nM | 77 nM
10 | Oc1cc(-c2ccc3c(N4C[C@@H]5CC[C@H]4CN5)nc(OC[C@@]45CCCN4C[C@H](F)C5)nc3c2F)c2ccccc2c1 [Example 45, 4-(4-((1S,4S)-2,5-diazabicyclo[2.2. 2]octan-2-yl)-8-fluoro-2-(((2R,7aS)-2-fluorotetrahydro-1H-pyrrolizin-7a(5H)-yl)methoxy)quinazolin-7-yl)naphthalen-2-ol] | 2 nM | 4 nM | 25 nM | 190 nM
11 | CCc1c(F)ccc2cc(O)cc(-c3c(F)cc4c(N5C[C@@H]6CC[C@H]5CN6)nc(OC[C@@H]5C[C@@H](F)CN5C)nc4c3F)c12 [Example 94, 4-(4-((1S,4S)-2,5-diazabicyclo[2.2. 2]octan-2-yl)-6,8-difluoro-2-(((2S,4R)-4-fluoro-1-methylpyrrolidin-2-yl)methoxy)quinazolin-7-yl)-5-ethyl-6-fluoronaphthalen-2-ol] | 4 nM | 5 nM | 110 nM | 152 nM
12 | CCc1cccc2cc(O)cc(-c3c(Cl)cc4c(N5C[C@H]6CC[C@@H](C5)N6)nc(OC[C@@]56CCCN5C[C@H](F)C6)nc4c3F)c12 [Example 170, 4-(4-((1R,5S)-3,8-diazabicyclo[3.2.1]octan-3-yl)-6-chloro-8-fluoro-2-(((2R,7aS)-2-fluorotetrahydro-1H-pyrrolizin-7a(5H)-yl)methoxy)quinazolin-7-yl)-5-ethylnaphthalen-2-ol] | 3 nM | 3 nM | 86 nM | 126 nM
13 | CN1CCC[C@H]1CCOc1nc(N2[C@@H]3CNC[C@H]2COC3)c2ccc(-c3cc(O)cc4ccccc34)c(F)c2n1 [Example 9, 4-(4-((1R,5S)-3-oxa-7,9-diazabicyclo[3.3. 1]nonan-9-yl)-8-fluoro-2-(2-((S)-1-methylpyrrolidin-2-yl)ethoxy)quinazolin-7-yl)naphthalen-2-ol] | 125 nM | 456 nM | > 25000 nM | > 25000 nM
14 | Nc1cc(-c2ccc3c(N4[C@@H]5CC[C@H]4CNC5)nc(OC[C@@]45CCCN4C[C@H](F)C5)nc3c2F)c2ccccc2c1 [Example 26, 4-(4-((1R,5S)-3,8-diazabicyclo[3.2. 1]octan-8-yl)-8-fluoro-2-(((2R,7aS)-2-fluorotetrahydro-1H-pyrrolizin-7a(5H)-yl)methoxy)quinazolin-7-yl)naphthalen-2-amine] | 18 nM | 34 nM | 1110 nM | 692 nM
15 | CN1C[C@H](F)C[C@H]1COc1nc(N2[C@@H]3CNC[C@H]2COC3)c2cc(F)c(-c3cc(O)cc4ccccc34)c(F)c2n1 [Example 18, 4-(4-((1R,5S)-3-oxa-7,9-diazabicyclo[3.3. 1]nonan-9-yl)-6,8-difluoro-2-(((2S,4R)-4-fluoro-1-methylpyrrolidin-2-yl)methoxy)quinazolin-7-yl)naphthalen-2-ol] | 18 nM | 60 nM | 1590 nM | 2960 nM
16 | CCc1c(F)ccc2cc(O)cc(-c3c(F)cc4c(N5C[C@H]6CC[C@@H](C5)N6)nc(OC[C@@H]5CCC(=O)N5)nc4c3F)c12 [Example 126, (5S)-5-(((4-((1R,5S)-3,8-diazabicyclo[3.2.1]octan-3-yl)-7-(8-ethyl-7-fluoro-3-hydroxynaphthalen-1-yl)-6,8-difluoroquinazolin-2-yl)oxy)methyl) pyrrolidin-2-one] | 2 nM | 6 nM | 388 nM | 1220 nM
17 | CC(O)COc1nc(N2C[C@H]3CC[C@@H](C2)N3)c2cc(F)c(-c3cc(O)cc4ccccc34)c(F)c2n1 (stereo partly drawn) [Example 125, 4-(4-((1R,5S)-3,8-diazabicyclo[3.2.1]octan-3-yl)-6,8-difluoro-2-(2-hydroxypropoxy)quinazolin-7-yl)naphthalen-2-ol] | 39 nM | 114 nM | > 10000 nM | > 10000 nM
18 | CCc1cccc2cc(O)cc(-c3ccc4c(N5C[C@H]6CC[C@@H](C5)N6)nc(OC[C@@]56CCCN5C[C@H](F)C6)nc4c3C)c12 [Example 168, 4-(4-((1R,5S)-3,8-diazabicyclo[3.2.1]octan-3-yl)-2-(((2R,7aS)-2-fluorotetrahydro-1H-pyrrolizin-7a(5H)-yl)methoxy)-8-methylquinazolin-7-yl)-5-ethylnaphthalen-2-ol] | 8 nM | 4 nM | 78 nM | 243 nM
